Among the data in BindingDB's records for PubMed 36126447 (Acharya & Bm Reddy College of Pharmacy, 2022) are IC50 values, retold here.

This assay concerns the target Programmed cell death 1 ligand 1 (Homo sapiens) (UniProt Q9NZQ7). The experiment in a line: Inhibition of human PD-1/PDL1 protein-protein interaction by luminescence proximity homogeneous assay.

What is called IC50 is the point on the concentration scale where inhibition reaches its midpoint.

Chain of Programmed cell death 1 ligand 1 (Homo sapiens) (Q9NZQ7 whole entry, looked up): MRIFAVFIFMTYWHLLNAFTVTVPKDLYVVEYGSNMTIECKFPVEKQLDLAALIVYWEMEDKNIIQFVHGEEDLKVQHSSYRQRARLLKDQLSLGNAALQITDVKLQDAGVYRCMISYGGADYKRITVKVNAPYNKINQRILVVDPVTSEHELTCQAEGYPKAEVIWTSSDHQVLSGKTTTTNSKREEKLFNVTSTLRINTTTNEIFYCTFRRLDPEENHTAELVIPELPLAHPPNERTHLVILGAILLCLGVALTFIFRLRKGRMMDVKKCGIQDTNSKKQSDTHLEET

In turn, `Cc1c(COc2ccc(C[C@H](N)C(=O)O)cc2Br)cccc1-c1ccccc1` showed an IC50 of 1.5 µM.
